In one series the test system is RBL-2H3. Description: Antiallergic activity in rat RBL2H3 cells assessed as inhibition of DNP-HSA-mediated degranulation by measuring decrease in beta-hexosaminidase activity preincubated for 30 mins followed by DNP-HSA stimulation and measured after 30 mins by 4-nitrophenyl 2-acetamido-2-deoxy-beta-D-glucopyranoside substrate based assay. The format is functional, cell-based.

The next series concerns Mus musculus. Description: Antiallergic activity in BALB/c mouse assessed as reduction in anti-DNP-IgE-mediated passive cutaneous anaphylaxis at 1000 mg/kg, po administered once daily for 5 days followed by anti-DNP-IgE stimulation on day 4 and subsequent DNP-HSA challenge on day 5 post 1 hr compound dose and measured after 30 mins by Evans blue dye-based spectrophotometric method relative to control. The format is functional. The arrangement: scale not given: the % may be the effect or the level left.

Series [1] deals with T1, Fatty-acid amide hydrolase 1 (Homo sapiens, UniProt O00519).
T1 sequence (O00519 whole entry): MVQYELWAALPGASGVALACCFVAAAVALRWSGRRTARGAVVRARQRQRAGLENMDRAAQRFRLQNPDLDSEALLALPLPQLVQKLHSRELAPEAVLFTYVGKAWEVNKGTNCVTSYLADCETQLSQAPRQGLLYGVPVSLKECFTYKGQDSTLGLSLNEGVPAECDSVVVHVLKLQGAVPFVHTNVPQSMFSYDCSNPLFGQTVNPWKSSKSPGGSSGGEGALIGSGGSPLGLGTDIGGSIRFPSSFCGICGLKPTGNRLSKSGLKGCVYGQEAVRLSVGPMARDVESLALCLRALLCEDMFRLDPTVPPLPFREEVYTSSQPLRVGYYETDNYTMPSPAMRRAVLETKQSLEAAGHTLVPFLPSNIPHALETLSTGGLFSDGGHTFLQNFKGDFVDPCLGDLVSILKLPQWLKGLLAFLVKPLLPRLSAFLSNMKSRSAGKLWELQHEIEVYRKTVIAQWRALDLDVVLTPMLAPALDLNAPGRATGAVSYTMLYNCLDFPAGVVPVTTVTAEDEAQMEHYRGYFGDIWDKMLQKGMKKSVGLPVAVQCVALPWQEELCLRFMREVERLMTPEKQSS
Description: Substrate activity at human FAAH expressed in baculovirus infected Sf9 cells assessed as docosahexaenoic acid formation incubated for 60 mins by HPLC analysis. The series is classed as ADME. The conditions noted are these: sf9, 1 h.

Series [2] deals with T1, Fatty-acid amide hydrolase 1. Description: Inhibition of human FAAH expressed in baculovirus infected Sf9 cells using N-(6-methoxypyridin-3-yl)octanamide as substrate measured for 15 mins by fluorescence based assay.

For orientation: IC50 means the concentration that inhibits the measured activity by half. For `CC/C=C\C/C=C\C/C=C\C/C=C\C/C=C\C/C=C\CCC(=O)N1CCN(S(C)(=O)=O)CC1`, the IC50 in the series with RBL-2H3 is > 50 µM.
In the case of `CCCCC/C=C\C/C=C\CCCCCCCC(=O)NCCO` [LINOLEOYLETHANOLAMIDE], the 50% inhibitory concentration (IC50) in the series with RBL-2H3 is 48 µM.
On the same count and under the same terms, to `CC/C=C\C/C=C\C/C=C\C/C=C\C/C=C\C/C=C\CCC(=O)NS(=O)(=O)c1ccc(C(=O)OC)cc1` belongs 30 µM.
The same measure, in the same setting: to `CC/C=C\C/C=C\C/C=C\C/C=C\C/C=C\C/C=C\CCC(=O)NS(=O)(=O)c1ccc(O)cc1` belongs > 50 µM.
Still for that read-out and setting: to `CC/C=C\C/C=C\C/C=C\C/C=C\C/C=C\C/C=C\CCC(=O)NC(C)(C)C` belongs > 50 µM; to `CCCCCCCC/C=C\CCCCCCCCCCCC(=O)NCCO`, > 50 µM; to `CC/C=C\C/C=C\C/C=C\C/C=C\C/C=C\C/C=C\CCC(=O)N(C)CCO`, > 50 µM.
Take `CC/C=C\C/C=C\C/C=C\C/C=C\C/C=C\C/C=C\CCC(=O)NS(=O)(=O)c1ccc(C(F)(F)F)cc1`: the IC50 with RBL-2H3 is 15 µM. Also, the Activity in the series on Mus musculus is 19%.
For `CC/C=C\C/C=C\C/C=C\CCCCCCCC(=O)NCCO`, in that order: 29 µM and 29%.
For the molecule `CC/C=C\C/C=C\C/C=C\C/C=C\C/C=C\C/C=C\CCC(=O)NS(=O)(=O)C(C)(C)C`, the results for the 50% inhibitory concentration (IC50) (in the series on RBL-2H3; in series [2]) were 17 µM and > 50 µM, respectively. In addition, in series [1], the Drug metabolism result was “Metabolite_Notdetected”. Further, the Activity in the series with Mus musculus amounted to 0%.
`CC/C=C\C/C=C\C/C=C\C/C=C\C/C=C\C/C=C\CCC(=O)NS(=O)(=O)c1cccs1`: the concentration for half-maximal inhibition (IC50) with RBL-2H3 is > 50 µM.
Consider `CC/C=C\C/C=C\C/C=C\C/C=C\C/C=C\C/C=C\CCC(=O)NS(=O)(=O)c1ccc(OC(F)(F)F)cc1`, for which, in the series with RBL-2H3, the IC50 is 19 µM. The Activity in the series on Mus musculus worked out at 11%.
Consider `CC/C=C\C/C=C\C/C=C\C/C=C\C/C=C\C/C=C\CCC(=O)NCCC`, for which the concentration for half-maximal inhibition (IC50) in the series on RBL-2H3 was > 50 µM.
Still for that read-out and setting: to `CCCCC/C=C\C/C=C\C/C=C\C/C=C\CCCC(=O)NCCO` [ANANDAMIDE] belongs > 50 µM.
Consider `CC/C=C\C/C=C\C/C=C\C/C=C\C/C=C\C/C=C\CCC(=O)NC(CO)CO`, for which the results for the half-inhibitory concentration (IC50) (with RBL-2H3; in series [2]) were 16 µM and > 50 µM, respectively. Moreover, the Drug metabolism entry in series [1] was “Metabolite_Notdetected”. In addition, in the series on Mus musculus, the Activity was 17%.
Regarding `CC/C=C\C/C=C\C/C=C\C/C=C\C/C=C\C/C=C\CCC(=O)NS(=O)(=O)Cc1ccccc1`, in the series on RBL-2H3, the concentration for half-maximal inhibition (IC50) was found to be 22 µM. The Activity with Mus musculus turned out to be 2%.
On to `CC/C=C\C/C=C\C/C=C\C/C=C\C/C=C\C/C=C\CCC(=O)NCC(=O)OC`, for which the IC50 with RBL-2H3 is > 50 µM.
Still for that read-out and setting: to `CC/C=C\C/C=C\C/C=C\C/C=C\C/C=C\C/C=C\CCC(=O)N1CCOCC1` belongs > 50 µM; to `CC/C=C\C/C=C\C/C=C\C/C=C\C/C=C\C/C=C\CCC(=O)N(CCO)CCO`, > 50 µM; to `CCCCC/C=C\C/C=C\C/C=C\C/C=C\CCCC(=O)O` [ARACHIDONIC ACID], > 50 µM.
As for `CC/C=C\C/C=C\C/C=C\C/C=C\C/C=C\C/C=C\CCC(=O)NCC(C)O` (centres undefined), the IC50 with RBL-2H3 was 27 µM.
As to `CC/C=C\C/C=C\C/C=C\C/C=C\C/C=C\C/C=C\CCC(=O)NS(=O)(=O)c1ccc(F)cc1`, the IC50 in the series on RBL-2H3 is 24 µM. In addition, the Activity in the series on Mus musculus is given as 0%.
For `CC/C=C\C/C=C\C/C=C\C/C=C\C/C=C\C/C=C\CCC(=O)OCCOCCO`, the IC50 in the series on RBL-2H3 is > 50 µM.
Regarding `CC/C=C\C/C=C\C/C=C\C/C=C\C/C=C\C/C=C\CCC(=O)NCC1CCOCC1`, the IC50 in the series with RBL-2H3 is > 50 µM.
The same measure, in the same setting: to `CC/C=C\C/C=C\C/C=C\C/C=C\C/C=C\C/C=C\CCC(=O)Nc1ccccc1O` belongs > 50 µM; to `CCCCCCCC/C=C\CCCCCCCC(=O)NCCO` [OLEOYLETHANOLAMIDE], > 50 µM; to `CCCCCCCC/C=C\CCCCCCCCCCCC(=O)O` [ERUCIC ACID], > 50 µM.
For the molecule `CC/C=C\C/C=C\C/C=C\C/C=C\C/C=C\C/C=C\CCC(=O)NCC(=O)O`, the IC50 with RBL-2H3 was found to be 24 µM; in series [2], 8.6 µM. In series [1], the Drug metabolism entry was “Metabolite_Detected”. Further, the Activity in the series with Mus musculus is listed as 0%.
For `CC/C=C\C/C=C\C/C=C\C/C=C\C/C=C\C/C=C\CCC(=O)NCCCO`, in that order: 18 µM, > 50 µM, “Metabolite_Detected” and 0%.
As for `CC/C=C\C/C=C\C/C=C\C/C=C\C/C=C\C/C=C\CCC(=O)NS(=O)(=O)c1ccccc1`, the half-inhibitory concentration (IC50) with RBL-2H3 was > 50 µM.
Regarding `CC/C=C\C/C=C\C/C=C\C/C=C\C/C=C\C/C=C\CCC(=O)NS(=O)(=O)c1ccc(C)cc1`, the half-maximal inhibitory concentration (IC50) with RBL-2H3 stood at 27 µM.
Same read-out and setting: to `CCCCCCCC/C=C\CCCCCCCC(=O)O` [OLEIC ACID] belongs > 50 µM; to `CC/C=C\C/C=C\C/C=C\C/C=C\C/C=C\C/C=C\CCC(=O)NS(=O)(=O)C(F)(F)F`, 47 µM; to `CC/C=C\C/C=C\C/C=C\C/C=C\C/C=C\C/C=C\CCC(=O)NS(=O)(=O)c1ccc(Cl)cc1`, 24 µM.
For `CC/C=C\C/C=C\C/C=C\C/C=C\C/C=C\C/C=C\CCC(=O)NS(=O)(=O)c1ccc([N+](=O)[O-])cc1`, the half-inhibitory concentration (IC50) in the series on RBL-2H3 stood at 15 µM. Also, in the series with Mus musculus, the Activity is listed as 49%.
For the molecule `CC/C=C\C/C=C\C/C=C\C/C=C\C/C=C\C/C=C\CCC(=O)N(C)CCOC`, the 50% inhibitory concentration (IC50) in the series with RBL-2H3 was > 50 µM.
Same read-out and setting: to `CC/C=C\C/C=C\C/C=C\C/C=C\C/C=C\C/C=C\CCC(=O)NC(C)C` belongs > 50 µM; to `CC/C=C\C/C=C\C/C=C\C/C=C\C/C=C\C/C=C\CCC(=O)NCCc1ccc(O)c(O)c1`, > 50 µM; to `CC/C=C\C/C=C\C/C=C\C/C=C\C/C=C\C/C=C\CCC(=O)NS(=O)(=O)C1CC1`, > 50 µM.
Same read-out and setting: to `CC/C=C\C/C=C\C/C=C\C/C=C\C/C=C\C/C=C\CCC(=O)OCCO` belongs > 50 µM.
Consider `CC/C=C\C/C=C\C/C=C\C/C=C\C/C=C\C/C=C\CCC(=O)NCCOCCO`, for which the half-maximal inhibitory concentration (IC50) with RBL-2H3 is 18 µM; in series [2], > 50 µM. Also, the Drug metabolism entry in series [1] was “Metabolite_Detected”. Also, the Activity in the series on Mus musculus amounted to 11%.
Regarding `CC/C=C\C/C=C\C/C=C\C/C=C\C/C=C\C/C=C\CCC(=O)NS(=O)(=O)c1ccc(C(=O)O)cc1`, the IC50 with RBL-2H3 was > 50 µM.
Regarding `CCCCC/C=C\C/C=C\CCCCCCCCCCCC(=O)NCCO`, in the series with RBL-2H3, the IC50 is > 50 µM.
For the molecule `CC/C=C\C/C=C\C/C=C\C/C=C\C/C=C\C/C=C\CCC(=O)O` [DOCONEXENT], the IC50 in the series on RBL-2H3 was > 50 µM. The Activity with Mus musculus is reported as 6%.
`CC/C=C\C/C=C\C/C=C\C/C=C\C/C=C\C/C=C\CCC(=O)NS(C)(=O)=O`: in the series with RBL-2H3, the IC50 is > 50 µM.
As for `CC/C=C\C/C=C\C/C=C\C/C=C\C/C=C\C/C=C\CCC(=O)N1CCN(C)CC1`, in the series on RBL-2H3, the IC50 was > 50 µM.
`CC/C=C\C/C=C\C/C=C\C/C=C\C/C=C\C/C=C\CCC(=O)NC(C)CO` (centres undefined): the IC50 in the series on RBL-2H3 was 24 µM; in series [2], > 50 µM. In addition, the Drug metabolism result in series [1] is on record as “Metabolite_Notdetected”. Moreover, the Activity in the series on Mus musculus is recorded as 7%.
Consider `CC/C=C\C/C=C\C/C=C\C/C=C\C/C=C\CCCC(=O)NCCO`, for which the IC50 with RBL-2H3 came out at 24 µM.
Same read-out and setting: to `CCCCC/C=C\C/C=C\CCCCCCCCCCCC(=O)O` belongs > 50 µM; to `CC/C=C\C/C=C\C/C=C\C/C=C\C/C=C\C/C=C\CCC(=O)Nc1cccc(O)c1`, > 50 µM.
The same measure, in the same setting: to `CC/C=C\C/C=C\C/C=C\C/C=C\C/C=C\C/C=C\CCC(=O)NCCOC` belongs > 50 µM; to `CCCCC/C=C\C/C=C\CCCCCCCC(=O)O` [LINOLEIC ACID], > 50 µM; to `CC/C=C\C/C=C\C/C=C\C/C=C\C/C=C\C/C=C\CCC(=O)NC1CCOCC1`, > 50 µM.
`CC/C=C\C/C=C\C/C=C\C/C=C\C/C=C\C/C=C\CCC(=O)NS(=O)(=O)C(F)(F)C(F)(F)F`: the IC50 with RBL-2H3 is 21 µM.
The same measure, in the same setting: to `CC/C=C\C/C=C\C/C=C\CCCCCCCC(=O)O` [LINOLENIC ACID] belongs > 50 µM; to `CCCCC/C=C\C/C=C\C/C=C\CCCCCCC(=O)O` [DIHOMO-GAMMA-LINOLENIC ACID], > 50 µM.
Still for that read-out and setting: to `CC/C=C\C/C=C\C/C=C\C/C=C\C/C=C\C/C=C\CCC(=O)NCCN` belongs > 50 µM.
For the molecule `CC/C=C\C/C=C\C/C=C\C/C=C\C/C=C\C/C=C\CCC(=O)NCC(O)CO` (centres undefined), the IC50 is 17 µM with RBL-2H3 and > 50 µM in series [2]. In addition, the Drug metabolism entry in series [1] is listed as “Metabolite_Detected”. Moreover, the Activity in the series on Mus musculus is 23%.
Take `CC/C=C\C/C=C\C/C=C\C/C=C\C/C=C\C/C=C\CCC(=O)OC(CO)CO`: the IC50 in the series on RBL-2H3 is > 50 µM.
Same read-out and setting: to `CCCCC/C=C\C/C=C\C/C=C\CCCCCCC(=O)NCCO` belongs > 50 µM; to `CC/C=C\C/C=C\C/C=C\C/C=C\C/C=C\CCCC(=O)O` [ICOSAPENT], > 50 µM.

The values above are taken from ChEMBL document CHEMBL4414618, “Structure-Activity Relationships of Fish Oil Derivatives with Antiallergic Activity in Vitro and in Vivo” (J Med Chem, 2019).
